Results as given in patent US6143492A, “Optical molecular sensors for cytochrome P450 activity” (Aurora Biosciences Corporation, priority 1999, dated 2000).
Where “and” joins values, the source holds several entries; their conditions need not be identical. Equal entries are not always repeated.

Key:
[1] = biological target: T1, CYP 2B6 (Homo sapiens, UniProt P20813); conditions: for Km: cyp 2b6
T1 sequence (P20813 1-491): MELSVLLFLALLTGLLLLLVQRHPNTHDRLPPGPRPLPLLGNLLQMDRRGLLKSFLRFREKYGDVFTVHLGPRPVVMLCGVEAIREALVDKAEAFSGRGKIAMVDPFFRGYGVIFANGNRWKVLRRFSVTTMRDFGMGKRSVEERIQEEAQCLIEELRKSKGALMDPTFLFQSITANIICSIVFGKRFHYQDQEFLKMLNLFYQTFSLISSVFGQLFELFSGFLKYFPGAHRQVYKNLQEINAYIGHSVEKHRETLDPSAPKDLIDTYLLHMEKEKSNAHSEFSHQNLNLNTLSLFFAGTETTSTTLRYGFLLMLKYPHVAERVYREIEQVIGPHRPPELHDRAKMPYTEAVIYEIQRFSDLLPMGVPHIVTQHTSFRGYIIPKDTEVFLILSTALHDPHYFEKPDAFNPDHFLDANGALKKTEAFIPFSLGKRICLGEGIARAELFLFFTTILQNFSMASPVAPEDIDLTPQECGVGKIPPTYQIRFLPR

[2] = biological target: CYP 2C9 (Homo sapiens, UniProt P11712); experiment: Kinetics of fluorogenic substrates with CYP 2C9; type: biochemical; conditions: for v (1.25 uM), turnover rate at 1.25 μM: CYP 2C9, substrate 1.25 uM; for v (10 uM), turnover rate at 10 μM: CYP 2C9, substrate 10 uM; for kcat / type of kinetics / conversion to the same fluorescent product vs the most closely structurally-related substrate / kcat/Km: CYP 2C9
Chain of CYP 2C9 (P11712 whole entry): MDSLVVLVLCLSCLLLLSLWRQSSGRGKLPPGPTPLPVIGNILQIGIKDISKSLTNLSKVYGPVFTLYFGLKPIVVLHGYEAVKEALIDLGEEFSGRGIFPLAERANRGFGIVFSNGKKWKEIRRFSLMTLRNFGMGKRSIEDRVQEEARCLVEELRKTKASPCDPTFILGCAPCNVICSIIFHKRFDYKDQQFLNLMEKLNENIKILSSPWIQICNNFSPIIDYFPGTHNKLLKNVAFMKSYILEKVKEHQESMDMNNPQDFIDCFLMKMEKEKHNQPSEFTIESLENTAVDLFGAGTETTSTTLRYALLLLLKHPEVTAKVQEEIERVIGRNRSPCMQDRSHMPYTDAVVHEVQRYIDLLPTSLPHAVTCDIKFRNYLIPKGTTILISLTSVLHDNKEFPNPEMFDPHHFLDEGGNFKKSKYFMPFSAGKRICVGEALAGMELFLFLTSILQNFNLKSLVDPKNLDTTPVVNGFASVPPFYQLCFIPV

[3] = biological target: CYP 2C19 (Homo sapiens, UniProt P33261); experiment: Kinetics of fluorogenic substrates with CYP 2C19; type: biochemical; conditions: for kcat / kcat/Km / type of kinetics / conversion to the same fluorescent product vs the most closely structurally-related substrate: CYP 2C19; for v (1.25 uM), turnover rate at 1.25 μM: CYP 2C19, substrate 1.25 uM; for v (10 uM), turnover rate at 10 μM: CYP 2C19, substrate 10 uM
Chain of CYP 2C19 (P33261 whole entry): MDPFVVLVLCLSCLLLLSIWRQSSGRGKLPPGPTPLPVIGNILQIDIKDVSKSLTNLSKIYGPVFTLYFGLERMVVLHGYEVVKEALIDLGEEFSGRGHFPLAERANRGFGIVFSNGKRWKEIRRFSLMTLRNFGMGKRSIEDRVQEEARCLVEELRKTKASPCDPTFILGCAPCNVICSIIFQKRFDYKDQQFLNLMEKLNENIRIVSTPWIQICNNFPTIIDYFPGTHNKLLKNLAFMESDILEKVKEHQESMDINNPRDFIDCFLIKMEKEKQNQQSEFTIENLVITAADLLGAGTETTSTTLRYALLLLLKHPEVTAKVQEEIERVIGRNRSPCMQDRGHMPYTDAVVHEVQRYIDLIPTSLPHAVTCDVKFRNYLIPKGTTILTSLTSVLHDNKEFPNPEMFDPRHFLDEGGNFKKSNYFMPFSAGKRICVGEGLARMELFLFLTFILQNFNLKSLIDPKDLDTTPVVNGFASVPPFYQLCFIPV

[4] = biological target: CYP 2D6 (Homo sapiens, UniProt P10635); experiment: Kinetics of fluorogenic substrates with CYP 2D6; type: biochemical; conditions: for kcat / kcat/Km / type of kinetics: CYP 2D6; for v (1.25 uM), turnover rate at 1.25 μM: CYP 2D6, substrate 1.25 uM; for v (10 uM), turnover rate at 10 μM: CYP 2D6, substrate 10 uM; for conversion to the same fluorescent product vs the most closely structurally-related substrate: CYP 3A4 and CYP 2D6, Table 8
Chain of CYP 2D6 (P10635 whole entry): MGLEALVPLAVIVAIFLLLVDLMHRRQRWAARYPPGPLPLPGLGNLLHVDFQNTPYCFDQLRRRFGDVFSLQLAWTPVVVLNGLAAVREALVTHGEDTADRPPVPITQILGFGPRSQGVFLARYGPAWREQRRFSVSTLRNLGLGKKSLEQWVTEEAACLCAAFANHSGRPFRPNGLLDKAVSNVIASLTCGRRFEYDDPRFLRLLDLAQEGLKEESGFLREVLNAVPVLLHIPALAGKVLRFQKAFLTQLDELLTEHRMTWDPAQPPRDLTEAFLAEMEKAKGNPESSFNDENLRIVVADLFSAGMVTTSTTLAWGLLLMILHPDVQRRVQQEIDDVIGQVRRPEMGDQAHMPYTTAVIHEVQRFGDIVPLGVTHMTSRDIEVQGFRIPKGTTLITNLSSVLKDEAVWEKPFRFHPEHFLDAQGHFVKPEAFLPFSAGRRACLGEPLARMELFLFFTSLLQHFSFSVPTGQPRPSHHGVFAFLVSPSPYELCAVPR

[5] = biological target: T2, CYP 3A4 (Homo sapiens, UniProt P08684); experiment: Kinetics of fluorogenic substrates with CYP 3A4; type: biochemical; conditions: for kcat / kcat/Km / type of kinetics / conversion to the same fluorescent product vs the most closely structurally-related substrate: CYP 3A4; for v (1.25 uM), turnover rate at 1.25 μM: CYP 3A4, substrate 1.25 uM; for v (10 uM), turnover rate at 10 μM: CYP 3A4, substrate 10 uM
T2 construct: NADPH regenerating system
T2 sequence (P08684 whole entry): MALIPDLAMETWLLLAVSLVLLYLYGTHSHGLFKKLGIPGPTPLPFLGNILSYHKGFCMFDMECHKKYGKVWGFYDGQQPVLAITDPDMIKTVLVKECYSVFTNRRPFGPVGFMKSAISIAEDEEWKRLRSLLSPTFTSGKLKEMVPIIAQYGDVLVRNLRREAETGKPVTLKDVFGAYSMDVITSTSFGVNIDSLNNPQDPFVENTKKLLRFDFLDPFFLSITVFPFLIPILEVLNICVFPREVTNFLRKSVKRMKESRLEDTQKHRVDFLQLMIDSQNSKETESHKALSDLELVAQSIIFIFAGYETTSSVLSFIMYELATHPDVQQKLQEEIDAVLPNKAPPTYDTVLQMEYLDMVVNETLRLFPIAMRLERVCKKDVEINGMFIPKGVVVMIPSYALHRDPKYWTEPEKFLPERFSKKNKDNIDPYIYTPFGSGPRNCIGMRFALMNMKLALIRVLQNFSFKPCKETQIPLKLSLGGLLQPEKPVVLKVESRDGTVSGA
Text: Whichever of the four abstractable hydrogen atoms (designated H^1 and H^2 in this representation of BOMR) is removed in the initial reaction step, with reference to Reaction Scheme 1 of FIG. 1, the hydroxylation product will spontaneously decompose to the free resorufin dye. In addition, the benzyloxy group, attached to the carbon carrying the two hydrogens designated H^2, contributes an inductive electronic effect on that carbon, which can stabilize the radical formed during abstraction of one of the H^2 hydrogens by a cytochrome P450.
Optimization of assay conditions was, and is preferably, accomplished through statistically validated Design of Experiments methodologies, using the commercial software package "Design-Expert®" produced by Stat-Ease® Inc. The data shown in FIGS. 4 and 5 were obtained with initial optimization.
For further understanding these terms in the context of this invention, attention is directed to FIG. 4 and the analysis of FIG. 4.

[6] = biological target: T3, CYP 1A2 (Homo sapiens, UniProt P05177); experiment: Kinetics of fluorogenic substrates with CYP 1A2; type: biochemical; conditions: for v (1.25 uM), turnover rate at 1.25 μM: CYP 1A2, substrate 1.25 uM; for v (10 uM), turnover rate at 10 μM: CYP 1A2, substrate 10 uM
T3 sequence (P05177 1-516): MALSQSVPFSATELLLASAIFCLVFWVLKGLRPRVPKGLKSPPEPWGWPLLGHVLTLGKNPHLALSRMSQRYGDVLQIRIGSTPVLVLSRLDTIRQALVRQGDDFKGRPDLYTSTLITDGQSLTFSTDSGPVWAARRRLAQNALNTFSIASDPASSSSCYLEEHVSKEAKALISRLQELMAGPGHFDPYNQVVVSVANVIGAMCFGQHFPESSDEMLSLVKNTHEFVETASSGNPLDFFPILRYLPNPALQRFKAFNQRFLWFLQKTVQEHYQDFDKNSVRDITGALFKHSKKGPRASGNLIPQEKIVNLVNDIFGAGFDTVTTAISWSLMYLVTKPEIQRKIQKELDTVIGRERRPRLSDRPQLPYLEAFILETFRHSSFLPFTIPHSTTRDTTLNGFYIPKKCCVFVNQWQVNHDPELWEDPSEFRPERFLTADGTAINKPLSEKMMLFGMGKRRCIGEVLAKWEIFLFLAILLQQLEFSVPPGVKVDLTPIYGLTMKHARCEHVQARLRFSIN

[7] = in parentheses: from Michaelis-Menten fit (sigmoidal kinetics)

| SMILES | kcat [1] [s⁻¹] | kcat/Km [1] [M⁻¹ s⁻¹] | type of kinetics [1] | v (1.25 uM), turnover rate at 1.25 μM [1] [min⁻¹] | v (10 uM), turnover rate at 10 μM [1] [min⁻¹] | v (1.25 uM), turnover rate at 1.25 μM [2] [min⁻¹] | v (10 uM), turnover rate at 10 μM [2] | kcat [3] [s⁻¹] | kcat/Km [3] [M⁻¹ s⁻¹] | type of kinetics [3] | v (1.25 uM), turnover rate at 1.25 μM [3] [min⁻¹] | v (10 uM), turnover rate at 10 μM [3] [min⁻¹] | kcat [4] [s⁻¹] | kcat/Km [4] [M⁻¹ s⁻¹] | v (1.25 uM), turnover rate at 1.25 μM [4] | v (10 uM), turnover rate at 10 μM [4] | v (1.25 uM), turnover rate at 1.25 μM [5] | v (10 uM), turnover rate at 10 μM [5] | kcat [2] | type of kinetics [2] | further results |
| --- | --- | --- | --- | --- | --- | --- | --- | --- | --- | --- | --- | --- | --- | --- | --- | --- | --- | --- | --- | --- | --- |
| N#Cc1cc2ccc(OCc3ccccc3)cc2oc1=O [BCC, 7-Benzyloxy-3-cyanocoumarin, reference compound] | 0.0017 | 1064 | Michaelis- | 0.04 | 0.07 | 0.00 | 0.00 min⁻¹ | 0.0017 | 234 | Michaelis- | 0.02 | 0.06 | – | – | – | – | – | – | – | – | – |
| COc1ccc(COc2ccc3nc4ccc(=O)cc-4oc3c2)cc1 [MOBR, Paramethoxybenzylresorufin] | 0.0067 | 58333 | Michaelis- | 0.08 | 0.10 | 0.02 | 0.02 min⁻¹ | – | – | not MMK | 1.26 | 0.69 | – | 263 | 0.0185 min⁻¹ and 0.02 min⁻¹ | 0.0409 min⁻¹ and 0.04 min⁻¹ | – | – | 0 s⁻¹ | Michaelis- | Km [1]: 0.1 µM; type of kinetics [4]: Michaelis-; conversion to the same fluorescent product vs the most closely structurally-related substrate [4]: more efficient conversion; conversion to the same fluorescent product vs the most closely structurally-related substrate [2]: more efficient conversion; kcat/Km [2]: 952 M⁻¹ s⁻¹ |
| CCOc1ccc2cc(C#N)c(=O)oc2c1 [3CEC, 3-Cyano-7-ethoxycoumarin, reference compound] | – | – | – | – | – | – | – | 0.0283 | 671 | Michaelis- | 0.05 | 0.34 | – | – | – | – | – | – | – | – | kcat ([6]; CYP 1A2): 0.733 s⁻¹; kcat/Km ([6]; CYP 1A2): 28205 M⁻¹ s⁻¹; type of kinetics ([6]; CYP 1A2): Michaelis-; v (1.25 uM), turnover rate at 1.25 μM [6]: 1.73 min⁻¹; v (10 uM), turnover rate at 10 μM [6]: 12.55 min⁻¹ |
| N#Cc1cc2ccc(OCOCc3ccccc3)cc2oc1=O [BOMCC, 7-Benzyloxymethyloxy-3-cyanocoumarin] | 1.1 | 21154 | Michaelis- | 0.38 | 3.05 | 0.04 | 0.42 min⁻¹ | 0.0317 | 2262 | Michaelis- | 0.16 | 0.68 | – | – | – | – | 0.12 min⁻¹ | 0.98 min⁻¹ | 0.035 s⁻¹ | Michaelis- | conversion to the same fluorescent product vs the most closely structurally-related substrate [1]: more efficient conversion; conversion to the same fluorescent product vs the most closely structurally-related substrate [2]: more efficient conversion; conversion to the same fluorescent product vs the most closely structurally-related substrate [3]: more efficient conversion; conversion to the same fluorescent product vs the most closely structurally-related substrate [5]: more efficient conversion; type of kinetics [5]: sigmoidal; kcat [5, 7]: 0.167 s⁻¹; kcat/Km [5, 7]: 1873 M⁻¹ s⁻¹ |

Second part, led by results:

| kcat [1] [s⁻¹] | kcat/Km [1] [M⁻¹ s⁻¹] | type of kinetics [1] | v (1.25 uM), turnover rate at 1.25 μM [1] [min⁻¹] | v (10 uM), turnover rate at 10 μM [1] [min⁻¹] | v (1.25 uM), turnover rate at 1.25 μM [2] [min⁻¹] | v (10 uM), turnover rate at 10 μM [2] | kcat [3] [s⁻¹] | kcat/Km [3] [M⁻¹ s⁻¹] | type of kinetics [3] | v (1.25 uM), turnover rate at 1.25 μM [3] [min⁻¹] | v (10 uM), turnover rate at 10 μM [3] [min⁻¹] | kcat [4] [s⁻¹] | kcat/Km [4] [M⁻¹ s⁻¹] | v (1.25 uM), turnover rate at 1.25 μM [4] | v (10 uM), turnover rate at 10 μM [4] | v (1.25 uM), turnover rate at 1.25 μM [5] | v (10 uM), turnover rate at 10 μM [5] | kcat [2] | type of kinetics [2] | SMILES | further results |
| --- | --- | --- | --- | --- | --- | --- | --- | --- | --- | --- | --- | --- | --- | --- | --- | --- | --- | --- | --- | --- | --- |
| – | – | – | – | – | – | – | – | – | – | 0.06 | 0.062 | 0.00567 | 708 | 0.03396 min⁻¹ | 0.2146 min⁻¹ | 0.0083 min⁻¹ | 0.0338 min⁻¹ | – | – | COCOc1ccc2nc3ccc(=O)cc-3oc2c1 [MOMR] | kcat [5]: 0.001 s⁻¹; kcat/Km [5]: 167 M⁻¹ s⁻¹ |
| 0.0483 | 34524 | Michaelis- | 1.63 | 2.53 | 0.01 | 0.03 min⁻¹ | – | – | – | – | – | 0.005 | – | 0.03 min⁻¹ | 0.10 min⁻¹ | – | – | 0.0067 s⁻¹ | Michaelis- | COc1ccc2c(C(F)(F)F)cc(=O)oc2c1 [MFC, 7-Methoxy-4-trifluoromethylcoumarin, reference compound] | Km [1]: 1.4 µM; type of kinetics [4]: Michaelis- |
| – | – | – | – | – | – | – | 0.0325 | 568 | – | 0.027 | 0.232 | 0.0017 | 93 | 0.0076 min⁻¹ | 0.0378 min⁻¹ | – | – | – | – | CC(C)Oc1ccc2cc(C#N)c(=O)oc2c1 [IPCC] | – |
| – | – | – | – | – | 0.02 | 0.188 min⁻¹ and 0.19 min⁻¹ | – | – | – | – | – | 0.01 | 2067 | 0.09 min⁻¹ | 0.49 min⁻¹ | 0.0214 min⁻¹ and 0.02 min⁻¹ | 0.3453 min⁻¹ and 0.35 min⁻¹ | 0.00483 s⁻¹ and 0.005 s⁻¹ | Michaelis- | COc1ccc(COc2ccc3c(C(F)(F)F)cc(=O)oc3c2)cc1 [MOBFC] | type of kinetics [4]: Michaelis-; conversion to the same fluorescent product vs the most closely structurally-related substrate [4]: more efficient conversion; conversion to the same fluorescent product vs the most closely structurally-related substrate [2]: more efficient conversion; kcat/Km [2]: 628 M⁻¹ s⁻¹; kcat [5]: 0.012 s⁻¹; kcat/Km [5]: 897 M⁻¹ s⁻¹; type of kinetics [5]: Michaelis- |
| 0.013 | 18265 | Michaelis- | 0.28 | 0.71 | – | – | – | – | – | – | – | – | – | – | – | 0.55 min⁻¹ | 0.88 min⁻¹ | – | – | O=c1ccc2nc3ccc(OCOCc4ccccc4)cc3oc-2c1 [BOMR, Benzyloxymethylresorufin] | conversion to the same fluorescent product vs the most closely structurally-related substrate [1]: more efficient conversion; conversion to the same fluorescent product vs the most closely structurally-related substrate [5]: more efficient conversion; kcat [5]: 0.0183 s⁻¹; kcat/Km [5]: 13095 M⁻¹ s⁻¹; type of kinetics [5]: Michaelis-; turnover rate (kcat) ([5]; CYP 3A4, FIG. 4 data): 0.5 s⁻¹; CYP 3A4 turnover rate of BOMR relative to BR ([5]; FIG. 4 data): approximately five times greater; enzymatic efficiency (kcat /Km) of CYP 3A4 towards BOMR relative to BR ([5]; FIG. 4 data): 14 times |
| – | – | – | – | – | – | – | 0.095 | 5723 | Michaelis- | 0.34 | 2.22 | – | – | – | – | – | – | – | – | CCOCOc1ccc2cc(C#N)c(=O)oc2c1 [EOMCC] | conversion to the same fluorescent product vs the most closely structurally-related substrate [3]: more efficient conversion; conversion to the corresponding fluorescent product vs 3CEC ([6]; CYP 1A2): a little bit more efficiently; kcat ([6]; CYP 1A2): 0.35 s⁻¹; kcat/Km ([6]; CYP 1A2): 31818 M⁻¹ s⁻¹; type of kinetics ([6]; CYP 1A2): Michaelis-; v (1.25 uM), turnover rate at 1.25 μM [6]: 1.77 min⁻¹; v (10 uM), turnover rate at 10 μM [6]: 9.95 min⁻¹ |
